Assay results as given in US20240067651A1 (Biohaven Therapeutics Ltd., priority 2019, published 2024).

Key:
Plasma Stability = assay type: in vitro ADME, human
Procedure, shortened: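 Parent compound quantified by LC-MS/MS after acetonitrile precipitation, reported as percent of control remaining (triplicate). Incubation: 1 hour, 37° C, fresh human plasma, compound at 1 μM.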

[1] = Caco-2 Permeability Assay; assay type: in vitro ADME, human; details: human
Procedure, shortened: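 Bidirectional transport at 37 °C for 90 min, 10 μM donor concentration, with or without Pgp inhibitor, across 21-day Caco-2 monolayers with TEER >600 […] in HEPES-buffered HBSS, pH 7.4. LC-MS/MS of donor and receiver samples gives Papp, B→A/A→B efflux ratio and mass recovery.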

[2] = Stability in Simulated Gastric Fluid (SGF); assay type: in vitro ADME; parameters: key: % parent compound remaining relative to 0-minute sample
Procedure, shortened: (§1)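 Each compound is spiked to a final 2 μg/mL into SGF with pepsin (pH 1.2) and into SIF with pancreatin (pH 6.8). Samples shake at 37° C, aliquots are taken between 0 and 60 minutes, precipitated with acetonitrile and analysed by LC-MS/MS. Degradation half-life is derived from the natural-log plot where time points allow.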

[3] = Stability in Simulated Intestinal Fluid (SIF); assay type: in vitro ADME; parameters: key: % parent compound remaining relative to 0-minute sample
Procedure, shortened: as §1

[4] = % remaining at 1 h, human plasma, 1 μM, 37° C.
[5] = Caco-2, pH 7.4, donor 10 μM, 90 minutes, 37° C., direction not given
[6] = % remaining at 1 h, SGF with pepsin pH 1.2, 2 μg/mL, 37° C.
[7] = % remaining at 1 h, SIF with pancreatin pH 6.8, 2 μg/mL, 37° C.
[8] = % remaining at 1 h in human plasma
[9] = Caco-2, pH 7.4, Caco-2 monolayer
[10] = % remaining at 1 h in simulated gastric fluid
[11] = % remaining at 1 h in simulated intestinal fluid
[12] = bare number, unit or time not given
[13] = % remaining at 1 h in human plasma, the 15th table
[14] = Caco-2, pH 7.4, Caco-2 monolayer, the 15th table
[15] = % remaining at 1 h in simulated gastric fluid, the 15th table
[16] = % remaining at 1 h in simulated intestinal fluid, the 15th table
[17] = % remaining at 1 h in human plasma, the 17th table
[18] = Caco-2, pH 7.4, Caco-2 monolayer, the 17th table
[19] = % remaining at 1 h in simulated gastric fluid, the 17th table
[20] = % remaining at 1 h in simulated intestinal fluid, the 17th table

COCCOCCN(C)C(=O)OCSc1nc(=O)c2[nH]ccc2n1CCOC(C)C [Example 88, ({4-Oxo-1-[2-(propan-2-yloxy)ethyl]-1H,4H,5H-pyrrolo[3,2-d]pyrimidin-2-yl}sulfanyl)methyl N-[2-(2-methoxyethoxy)ethyl]-N-methylcarbamate]
human Plasma stability (Plasma Stability; [4]): 100% | Papp at 90 min, 10 µM [1, 5]: 0.751 ×10⁻⁶ cm/s | SGF [2, 6]: 99% | SIF [3, 7]: 64%

CC(C)OCCn1c(=S)[nH]c(=O)c2c1ccn2COC(=O)OC(C)C [Example 90, {4-oxo-1-[2-(propan-2-yloxy)ethyl]-2-sulfanylidene-1H,2H,3H,4H,5H-pyrrolo[3,2-d]pyrimidin-5-yl}methyl propan-2-yl carbonate]
human Plasma stability (Plasma Stability; [4]): 0% remaining | Papp at 90 min, 10 µM [1, 5]: 18 ×10⁻⁶ cm/s | SGF [2, 6]: 77% remaining | SIF [3, 7]: 56% remaining

CC(C)OCCn1c(=S)[nH]c(=O)c2c1ccn2COC(=O)CCNC(=O)[C@@H]1CCC(=O)N1C.O=C(O)C(F)(F)F [Example 64]
human Plasma stability (Plasma Stability; [8]): 76% remaining | Papp at 90 min, 10 µM [1, 9]: < 0.19 ×10⁻⁶ cm/s | SGF [2, 10]: 98% remaining | SIF [3, 11]: 97% remaining

CC(C)OCCn1c(SCO)nc(=O)c2[nH]ccc21 [Example 336, 2-[(hydroxymethyl)sulfanyl]-1-[2-(propan-2-yloxy)ethyl]-1H,4H,5H-pyrrolo[3,2-d]pyrimidin-4-one]
human Plasma stability (Plasma Stability; % remaining @ 1 h): 73% remaining | Papp at 90 min, 10 µM ([1]; Caco-2, pH 7.4): 1.82 ×10⁻⁶ cm/s | SGF [2, 12]: 93 | SIF [3, 12]: 6

CC(C)OCCn1c(=S)n2c(=O)c3c1ccn3COC(=O)C(C)(C)CCCCC(C)(C)C(=O)OC2 [Example 118, 5,5,10,10-Tetramethyl-16-[2-(propan-2-yloxy)ethyl]-15-sulfanylidene-3,12-dioxa-1,14,16-triazatricyclo[12.5.2.0^{17,20}]henicosa-17(20),18-diene-4,11,21-trione]
human Plasma stability (Plasma Stability; [4]): 73% | Papp at 90 min, 10 µM [1, 5]: 6.6 ×10⁻⁶ cm/s | SGF [2, 6]: 94% | SIF [3, 7]: 76%

CCOC(=O)N1CCCC1C(=O)NCCC(=O)OCn1ccc2c1c(=O)[nH]c(=S)n2CCOC(C)C.O=C(O)C(F)(F)F (stereo not drawn) [Example 66]
human Plasma stability (Plasma Stability; [8]): 75% remaining | Papp at 90 min, 10 µM [1, 9]: 0.736 ×10⁻⁶ cm/s | SGF [2, 10]: 96% remaining | SIF [3, 11]: 80% remaining

COc1ccc(N(C)C(=O)OCSc2nc(=O)c3[nH]ccc3n2CCOC(C)C)cc1 [Example 241]
human Plasma stability (Plasma Stability; human plasma, at 1 h): 100% remaining | Papp at 90 min, 10 µM [1, 9]: 10.5 ×10⁻⁶ cm/s | SGF ([2]; simulated gastric fluid, at 1 h): 57% remaining | SIF ([3]; simulated intestinal fluid, at 1 h): 97% remaining

CC(C)OCCn1c(=S)[nH]c(=O)c2c1ccn2COC(=O)CCNC(=O)[C@@H](N)CCc1ccccc1.O=C(O)C(F)(F)F [Example 25]
human Plasma stability (Plasma Stability; [8]): 96% remaining | Papp at 90 min, 10 µM [1, 9]: 0.287 ×10⁻⁶ cm/s | SGF [2, 10]: 99% remaining | SIF [3, 11]: 43% remaining

CC(C)OCCn1c(=S)[nH]c(=O)c2c1ccn2COC(=O)CCCCNC(=O)[C@H](Cc1c[nH]c2ccccc12)NC(=O)OC(C)(C)C.O=C(O)C(F)(F)F [Example 47]
human Plasma stability (Plasma Stability; [8]): 78% remaining | Papp at 90 min, 10 µM [1, 9]: 9.15 ×10⁻⁶ cm/s | SGF [2, 10]: 99% remaining | SIF [3, 11]: 46% remaining

CCCCNC(=O)OCSc1nc(=O)c2c(ccn2C(=O)NCCCC)n1CCOC(C)C [Example 194]
human Plasma stability (Plasma Stability; [13]): 97% remaining | Papp at 90 min, 10 µM [1, 14]: 42.9 ×10⁻⁶ cm/s | SGF [2, 15]: 99% remaining | SIF [3, 16]: 59% remaining

CC(C)OCCn1c(=S)[nH]c(=O)c2c1ccn2COC(=O)N[C@H](C(=O)O)C(C)C [Example 109, (2S)-3-methyl-2-{[({4-oxo-1-[2-(propan-2-yloxy)ethyl]-2-sulfanylidene-1H,2H,3H,4H,5H-pyrrolo[3,2-d]pyrimidin-5-yl}methoxy)carbonyl]amino}butanoic acid]
human Plasma stability (Plasma Stability; [4]): 100% | Papp at 90 min, 10 µM [1, 5]: 0.094 ×10⁻⁶ cm/s | SGF [2, 6]: 94% | SIF [3, 7]: 96%

CC(C)OCCn1c(=S)[nH]c(=O)c2c1ccn2COC(=O)CCCCNC(=O)[C@H](Cc1ccccc1)NC(=O)OCC1c2ccccc2-c2ccccc21.O=C(O)C(F)(F)F [Example 22]
human Plasma stability (Plasma Stability; [8]): 74% remaining | Papp at 90 min, 10 µM [1, 9]: 0.647 ×10⁻⁶ cm/s | SGF [2, 10]: 87% remaining | SIF [3, 11]: 90% remaining

CC(C)OCCn1c(=S)[nH]c(=O)c2c1ccn2COC(=O)CCCCOC(=O)[C@H](N)Cc1ccccc1.O=C(O)C(F)(F)F [Example 341, trifluoroacetic acid {4-oxo-1-[2-(propan-2-yloxy)ethyl]-2-sulfanylidene-1H,2H,3H,4H,5H-pyrrolo[3,2-d]pyrimidin-5-yl}methyl 5-{[(2R)-2-amino-3-phenylpropanoyl]oxy}pentanoate]
human Plasma stability (Plasma Stability; % remaining @ 1 h): 1% remaining | Papp at 90 min, 10 µM ([1]; Caco-2, pH 7.4): 0.259 ×10⁻⁶ cm/s | SGF [2, 12]: 99 | SIF [3, 12]: 33

CC(C)OCCn1c(=S)[nH]c(=O)c2c1ccn2COC(=O)CCNC(=O)C1CCCN1C(=O)OC(C)C.O=C(O)C(F)(F)F (stereo not drawn) [Example 68]
human Plasma stability (Plasma Stability; [8]): 100% | Papp at 90 min, 10 µM [1, 9]: 2.26 ×10⁻⁶ cm/s | SGF [2, 10]: 76% remaining | SIF [3, 11]: 69% remaining

CC(C)C[C@@H](NC(=O)OC(C)(C)C)C(=O)OCCCCC(=O)OCn1ccc2c1c(=O)[nH]c(=S)n2CCOC(C)C [Example 347, 5-oxo-5-({4-oxo-1-[2-(propan-2-yloxy)ethyl]-2-sulfanylidene-1H,2H,3H,4H,5H-pyrrolo[3,2-d]pyrimidin-5-yl}methoxy)pentyl (2R)-2-{[(tert-butoxy)carbonyl]amino}-4-methylpentanoate]
human Plasma stability (Plasma Stability; % remaining @ 1 h): 16% remaining | Papp at 90 min, 10 µM ([1]; Caco-2, pH 7.4): 1.06 ×10⁻⁶ cm/s | SGF ([2]; % remaining @ 1 h): 98% remaining | SIF ([3]; % remaining @ 1 h): 4% remaining

CC(C)OCCn1c(=S)[nH]c(=O)c2c1ccn2COC(=O)CCNC(=O)[C@H](Cc1ccc(O)cc1)NC(=O)OC(C)(C)C.O=C(O)C(F)(F)F [Example 46]
human Plasma stability (Plasma Stability; [8]): 63% remaining | Papp at 90 min, 10 µM [1, 9]: 1.12 ×10⁻⁶ cm/s | SGF [2, 10]: 98% remaining | SIF [3, 11]: 100%

CC(=O)OCc1ccccc1N(C)C(=O)OC(C)n1ccc2c1c(=O)nc(S)n2CCOC(C)C (stereo not drawn) [Example 221]
human Plasma stability (Plasma Stability; [17]): 94% remaining | Papp at 90 min, 10 µM [1, 18]: 2.54 ×10⁻⁶ cm/s | SGF [2, 19]: 67% remaining | SIF [3, 20]: 68% remaining

CC(C)OCCn1c(=S)n(COCC[Si](C)(C)C)c(=O)c2c1ccn2COCC[Si](C)(C)C [Example 71, 1-[2-(propan-2-yloxy)ethyl]-2-sulfanylidene-3,5-bis({[2-(trimethylsilyl)ethoxy]methyl})-1H,2H,3H,4H,5H-pyrrolo[3,2-d]pyrimidin-4-one]
human Plasma stability (Plasma Stability; [4]): 58% | Papp at 90 min, 10 µM [1, 5]: 0.178 ×10⁻⁶ cm/s | SGF [2, 6]: 98% | SIF [3, 7]: 88%

CC(C)OCCn1c(SCOCC[Si](C)(C)C)nc(=O)c2c1ccn2COCC[Si](C)(C)C [Example 73, 1-[2-(propan-2-yloxy)ethyl]-5-{[2-(trimethylsilyl)ethoxy]-methyl}-2-({[2-(trimethylsilyl)ethoxy]methyl}sulfanyl)-1H,4H,5H-pyrrolo[3,2-d]pyrimidin-4-one]
human Plasma stability (Plasma Stability; [4]): 99% | Papp at 90 min, 10 µM [1, 5]: < 0.717 ×10⁻⁶ cm/s | SGF [2, 6]: 35% | SIF [3, 7]: 55%

CCN(C(=O)OCSc1nc(=O)c2[nH]ccc2n1CCOC(C)C)C(C)C [Example 190]
human Plasma stability (Plasma Stability; [13]): 99% @ 1 h | Papp at 90 min, 10 µM [1, 14]: 13.8 ×10⁻⁶ cm/s | SGF [2, 15]: 99% @ 1 h | SIF [3, 16]: 98% @ 1 h

CCCNC(=O)n1ccc2c1c(=O)[nH]c(=S)n2CCOC(C)C [Example 225]
human Plasma stability (Plasma Stability; [17]): 99% remaining | Papp at 90 min, 10 µM [1, 18]: 24.3 ×10⁻⁶ cm/s | SGF [2, 19]: 98% remaining | SIF [3, 20]: 78% remaining

CC(C)OCCn1c(=S)[nH]c(=O)c2c1ccn2C(=O)NC(C)(C)C [Example 229, N-tert-butyl-4-oxo-1-[2-(propan-2-yloxy)ethyl]-2-sulfanylidene-1H,2H,3H,4H,5H-pyrrolo[3,2-d]pyrimidine-5-carboxamide]
human Plasma stability (Plasma Stability; [4]): 96% | Papp at 90 min, 10 µM [1, 5]: 26.4 ×10⁻⁶ cm/s | SGF [2, 6]: 98% | SIF [3, 7]: 76%

COC(=O)[C@H](CCCCNC(=O)[C@@H](NC(=O)OC(C)(C)C)C(C)C)NC(=O)OCn1ccc2c1c(=O)[nH]c(=S)n2CCOC(C)C [Example 111, methyl (2S)-6-[(2S)-2-{[(tert-butoxy)carbonyl]amino}-3-methylbutanamido]-2-{[{{4-oxo-1-[2-(propan-2-yloxy)ethyl]-2-sulfanylidene-1H,2H,3H,4H,5H-pyrrolo[3,2-d]pyrimidin-5-yl}methoxy)carbonyl]amino}hexanoate]
human Plasma stability (Plasma Stability; [4]): 85% | Papp at 90 min, 10 µM [1, 5]: 0.575 ×10⁻⁶ cm/s | SGF [2, 6]: 87% | SIF [3, 7]: 74%

COC(=O)OCSc1nc(=O)c2c(ccn2CSc2nc(=O)c3[nH]ccc3n2CCOC(C)C)n1CCOC(C)C [Example 199]
human Plasma stability (Plasma Stability; [13]): 46% remaining | Papp at 90 min, 10 µM [1, 14]: 5.54 ×10⁻⁶ cm/s | SGF [2, 15]: 47% remaining | SIF [3, 16]: 79% remaining
